Data from US9421203B2, “Sensitization of cancer cells to DNA damage by inhibiting kinases essential for DNA damage checkpoint control” (Institute for Cancer Research, priority 2012, dated 2016).
“Also recorded” adds a separate entry of the source.

How the values were obtained:
PANC1 cells [1] = assay: cells; type: cell-based; settings: for viability of gemcitabine treated PANC1 cells: gemcitabine 10 nM 24 h, then inhibitor 1 μM for 48 h (FIG. 1A)
Procedure: FIGS. 7A-7D show the viability of PANC1 cells treated with increasing concentrations of (FIG. 7A) doxorubicin or (FIG. 7B) cisplatin (24 h) before the addition of UCN-01 (100 nM) or Bos-I (1000 nM) for a further 48 hours.
Identification of clinically relevant kinase inhibitors that sensitize cells to gemcitabine. In the experiments described in this Example, the general protocol was to treat pancreatic cancer cell line (Panc-1) with a dose of gemcitabine that induces DNA damage and arrests cell cycle progression. A panel of nine different clinically relevant kinase inhibitors (FIG. 1A) were added to gemcitabine treated cells, and were assessed for their ability to enhance killing of pancreatic cancer cells to gemcitabine. PANC1 cells were treated with a sub-lethal (IC20) concentration of gemcitabine (10 nM) for 24 hours (a time and concentration sufficient to induce DNA damage and S phase arrest) and kinase inhibitors (all at 1 μM final) were added for another 48 h before cell viability was measured. UCN-01, a Chk1 inhibitor that is established as a sensitizer of gemcitabine was included as a positive control.

PANC1 cells [2] = assay: Clonogenic survival assay in PANC1 cells; type: cell-based; settings: gemcitabine 10 nM 24 h
Procedure: Surviving colonies were determined 10 days later. […] After this time all drugs were removed and cells were plated to determine their efficiency of colony formation after 10 days.

PANC1 cells [3] = assay: Time-lapse video-microscopy of checkpoint override (premature mitosis) in PANC1 cells; type: cell-based; settings: gemcitabine 24 h, then inhibitor 1 μM (UCN-01 100 nM), time-lapse 24 hours
Procedure: PANC1 cells were treated with gemcitabine for 24 hours before the addition of kinase inhibitors (1 μM), and filming commenced thereafter.
Time-lapse video microscopy was used to document the fates of cells treated with gemcitabine with and without the Chk1 inhibitor, UCN-01 (FIG. 3).

Mia-PaCa-II cells = assay: Mia-PaCa-II cell viability after gemcitabine followed by authentic bosutinib; type: cell-based; settings: authentic bosutinib at 2.5 μM and 5 μM (FIG. 7D)
[4] = system: 300 recombinant human protein kinases; settings: of 300 recombinant human kinases; database / Anastassiadis 2011; cited from earlier work
PANC1 cells [5] = type: cell-based; settings: for sensitization of PANC1 cells to gemcitabine: increasing gemcitabine 24 h, then UCN-01 100 nM, bosutinib or sunitinib 1 μM for 48 h (FIG. 1B)
Wee 1 = Wee 1 (Homo sapiens, UniProt P30291); assay: IC50 / kinase assay toward recombinant Wee1 (MBP or Cdc2 substrate); type: biochemical; settings: Cdc2 as substrate; data not shown
Wee 1, sequence (P30291 whole entry): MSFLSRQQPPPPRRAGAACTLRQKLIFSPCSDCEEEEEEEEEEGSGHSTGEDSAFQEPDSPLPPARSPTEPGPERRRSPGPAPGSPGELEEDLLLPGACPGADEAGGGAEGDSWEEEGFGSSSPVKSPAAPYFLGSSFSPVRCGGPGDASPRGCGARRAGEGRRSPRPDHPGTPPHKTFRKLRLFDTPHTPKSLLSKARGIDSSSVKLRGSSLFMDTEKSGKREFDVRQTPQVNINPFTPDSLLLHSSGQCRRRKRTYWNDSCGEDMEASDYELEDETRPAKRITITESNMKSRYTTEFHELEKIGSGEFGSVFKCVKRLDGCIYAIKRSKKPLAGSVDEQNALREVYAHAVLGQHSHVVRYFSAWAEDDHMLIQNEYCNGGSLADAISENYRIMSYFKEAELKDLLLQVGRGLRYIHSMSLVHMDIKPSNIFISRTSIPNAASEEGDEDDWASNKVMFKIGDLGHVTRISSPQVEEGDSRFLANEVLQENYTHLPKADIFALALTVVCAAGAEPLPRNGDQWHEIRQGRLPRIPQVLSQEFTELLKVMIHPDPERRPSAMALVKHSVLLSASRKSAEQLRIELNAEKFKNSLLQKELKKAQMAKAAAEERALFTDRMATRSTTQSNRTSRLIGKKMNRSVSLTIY

PANC1 cells [6] = assay: Immunofluorescence of mitotic figures in gemcitabine-arrested cells; type: cell-based; settings: UCN-01 100 nM or Bos-I 1000 nM (FIG. 4)
From the text: Shown are representative images of cells from each treatment.
The mitotic figures of cells forced into mitosis by the newly identified sensitizers were examined to determine how they compared to checkpoint override by UCN-01. […] The defects include two lobes of chromatin that lie outside of the spindle, with the detached kinetochores lying within the spindle.
It was observed that overriding the gemcitabine induced S phase checkpoint arrest with Chk1 inhibitors (UCN-01) results in a discrete and reproducible mitotic defect called MUGs (mitotically unreplicated genomes). The defining feature of MUGs is the unreplicated centromeres in the genome are physically detached from the chromosome mass (FIG. 4).

[7] = system: Tyr15 phosphorylation of Cdc2; assay: Tyr15 phosphorylation of Cdc2 in gemcitabine treated PANC1 cells; type: cell-based; settings: PANC1 cells treated with gemcitabine
From the text: Inhibition of Tyr15 phosphorylation was not observed for dasatnib, which is fully consistent with its in vitro kinase profile, and its inability to override the DNA damage checkpoint.

EGF-1 cells = assay: Immunofluorescence of checkpoint override in patient-derived pancreatic cancer cell line EGF-1; type: cell-based; settings: arrest imposed by either gemcitabine or doxorubicin
From the text: Quantification of the percentage of cells that enter mitosis/override the checkpoint after treatment with either gemcitabine or doxorubicin is shown (right panel).
Tumor cells were isolated under an IRB-approved protocol and passaged as xenografts in mice. EGF-1 is a cell line that was derived from F1 tumors and used for in vitro studies.

[8] = system: Ba/F3 cells expressing the Bcr-Abl wild-type (WT); assay: Viability of Ba/F3 cells expressing Bcr-Abl wild-type with bendamustine; type: cell-based; settings: Bos-I 1000 nM (FIG. 9A)
Procedure: (§1) FIGS. 9A and 9B show the viability of Ba/F3 cells either expressing (FIG. 9A) the Bcr-Abl wild-type (WT) or (FIG. 9B) the Bcr-Abl mutant (T3151) kinases (lower) treated with increasing concentrations of bendamustine alone or with the addition of Bos-1 (1000 nM).
(§2) It is believed that inhibitors of Src and Abl tyrosine kinases may be effective as a single agent in the treatment of CML (Chronic myelogenous leukemia) where it contains a specific chromosome translocation that fuses the Abl kinase to the Bcr gene. Inhibitors of the Bcr/Abl fusion kinase, such as imatinib and bostunib (Formula I), are effective in the treatment of CML, but resistance (at least for imatinib) invariably occurs. Resistance to imatinib occurs most often as a result of mutations at the gatekeeper position (Threonine 315) within the Abl kinase domain. Such mutants no longer respond to inhibitors such as imatinib. […] (FIG. 9A and FIG. 9B). It is believed that the activity of Bosutinib-isomer against wild type and T3151 mutant is likely mediated through its off-target effects against the DNA damage checkpoint kinases, Wee1 and Chk1.

[9] = system: Ba/F3 cells expressing the Bcr-Abl mutant (T3151); assay: Viability of Ba/F3 cells expressing Bcr-Abl mutant with bendamustine; type: cell-based; settings: Bos-I 1000 nM (FIG. 9B)
Procedure: as §1, §2

## COc1cc(Nc2c(C#N)cnc3cc(OCCCN4CCN(C)CC4)c(OC)cc23)c(Cl)cc1Cl [Authentic bosutinib, Bosutinib]
PANC1 cells [1]
  viability of gemcitabine treated PANC1 cells: significantly reduced viability of cells treated with gemcitabine
PANC1 cells [2]; compound 0.5 μM for 3 h, colonies after 10 days (FIG. 2)
  sensitization to killing by gemcitabine, clonogenic survival: not
PANC1 cells [3]
  checkpoint override / premature entry into mitosis: able to override the checkpoint and force cells into premature mitosis
Mia-PaCa-II cells
  sensitization of Mia-PaCa-II cells to gemcitabine: sensitized to gemcitabine
[4]
  number of kinases inhibited by more than 50%: 84/300
PANC1 cells [5]; PANC1, titration of sensitizer
  minimum effective concentration to sensitize cells to gemcitabine: 750 nM
PANC1 cells [5]
  sensitization of PANC1 cells to gemcitabine: sensitized cells to gemcitabine

## Cn1c(=O)n(-c2ccc(C(C)(C)C#N)cc2)c2c3cc(-c4cnc5ccccc5c4)ccc3ncc21 [BEZ-235]
PANC1 cells [1]
  viability of gemcitabine treated PANC1 cells: significantly reduced viability of cells treated with gemcitabine

## COc1cc2c(Nc3cc(Cl)c(OC)c(Cl)c3)c(C#N)cnc2cc1OCCCN1CCN(C)CC1 [Bosutinib isomer, Bosutinib-I]
Wee 1
  Wee1 inhibitory activity against physiologically relevant substrate Cdc2: recapitulated the studies that used MBP as a substrate
PANC1 cells [1]; 1 μM of the isomer (FIG. 7A)
  sensitization of PANC1 cells to doxorubicin: sensitization by the bosutinib isomer was observed
PANC1 cells [1]; 1 μM of the isomer (FIG. 7B)
  sensitization of PANC1 cells to cisplatin: sensitization by the bosutinib isomer was observed
PANC1 cells [1]; PANC1, 1 uM, MTS assay and clonogenic assays
  sensitization to gemcitabine at 1 uM: sensitized cells to gemcitabine
PANC1 cells [1]
  viability of gemcitabine treated PANC1 cells: reduced the viability of gemcitabine treated cells in a dose-dependent manner
PANC1 cells [2]; compound 1 μM for 3 h, colonies after 10 days (FIG. 2, FIG. 6)
  sensitization to killing by gemcitabine, clonogenic survival: sensitized cells to killing by gemcitabine
PANC1 cells [3]
  checkpoint override / premature entry into mitosis: increased the number of mitotic cells
PANC1 cells [6]
  mitotic figures of gemcitabine-arrested cells: abnormal mitotic figures from gemcitabine-arrested cells that were nearly indistinguishable from UCN-01 treatment
[7]
  Tyr15 phosphorylation of Cdc2: dose-dependent inhibition of Tyr15 phosphorylation
EGF-1 cells
  premature entry into mitosis / checkpoint override in EGF-1 cells: able to prematurely enter mitosis after overriding checkpoint arrests
[8]
  killing of cells in combination with Bendamustine: enhanced killing of cells
[9]
  killing of cells in combination with Bendamustine: enhanced killing of cells
[4]
  number of kinases inhibited by more than 50%: 84

## CN[C@@H]1C[C@H]2O[C@@](C)([C@@H]1OC)n1c3ccccc3c3c4c(c5c6ccccc6n2c5c31)C(=O)N[C@@H]4O [UCN-01]
PANC1 cells [3]
  checkpoint override / premature entry into mitosis: forced cells to prematurely enter mitosis; also recorded: increased the number of cells that entered mitosis
PANC1 cells [6]
  mitotic figures of gemcitabine-arrested cells: severely perturbed mitotic figures
PANC1 cells [5]
  sensitization of PANC1 cells to gemcitabine: sensitized cells to gemcitabine

## Nc1ccn([C@@H]2O[C@H](CO)[C@@H](O)C2(F)F)c(=O)n1 [gemcitabine, Gemcitabine]
PANC1 cells [1]; Homo sapiens, PANC-1, read-out: LC50 of gemcitabine alone
  CC50: > 30 nM
